Results from patent publication US11377442B2, “Small molecule agonists and antagonists of NR2F6 activity” (ZANDER THERAPEUTICS, INC., priority 2016, dated 2022).

Biological target: T1, NR2F6 (Homo sapiens, UniProt P10588)
T1 construct: expressed in transfected cells; also transient transfection
T1 sequence (P10588 1-404): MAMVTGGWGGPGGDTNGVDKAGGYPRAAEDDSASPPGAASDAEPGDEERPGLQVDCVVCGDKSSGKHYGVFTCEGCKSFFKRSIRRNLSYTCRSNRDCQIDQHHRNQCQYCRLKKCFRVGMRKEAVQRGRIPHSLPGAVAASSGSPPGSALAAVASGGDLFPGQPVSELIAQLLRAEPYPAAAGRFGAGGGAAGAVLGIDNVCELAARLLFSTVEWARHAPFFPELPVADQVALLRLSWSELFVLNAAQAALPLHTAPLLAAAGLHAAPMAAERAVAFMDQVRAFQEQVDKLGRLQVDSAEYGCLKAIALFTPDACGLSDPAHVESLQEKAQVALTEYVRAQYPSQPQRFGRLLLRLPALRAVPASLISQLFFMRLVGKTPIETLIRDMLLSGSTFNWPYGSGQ
Assay: NR2F6 agonist screening, Firefly signal cmpd/DMSO
Type: cell-based
Parameters: Firefly NR2F6 full length, cmpd/DMSO (mean) / Firefly F4, cmpd/DMSO (mean): unit of the concentration uncertain
Conditions: for Firefly/Renilla (NR2F6 stable, clone F4): ratio Firefly/Renilla; for Firefly, NR2F6 stable (clone F4)/pGL4: ratio of Firefly in NR2F6 stable clone F4 to pGL4

[1] = C11 analogs follow set (Tables 2-10)
[2] = Concentration 2 (unit uncertain)
[3] = Concentration 10 (unit uncertain)
[4] = Concentration 40 (unit uncertain)

Firefly, cmpd/DMSO repeat 1 [1] | Firefly, cmpd/DMSO repeat 2 [1] | Compound | further results
1.0 | 1.0 | COc1ccc2oc(=O)c(S(=O)(=O)c3ccc(OC)c(OC)c3)cc2c1 [Compound C156] | –
– | – | CCOc1cccc2cc(S(=O)(=O)c3ccc(F)c(Cl)c3)c(=O)oc12 [Compound C251] | Firefly, cmpd/DMSO repeat 1 (Table 9): 2.1; Firefly, cmpd/DMSO repeat 2 (Table 9): 1.9
15.2 | 16.9 | COc1ccc(NC(=O)c2ccc3oc(=O)c(S(=O)(=O)c4ccc(C)cc4)cc3c2)cc1 [Compound C178] | –
19.3 | 16.1 | COc1ccc(S(=O)(=O)c2cc3cc(Br)ccc3oc2=O)cc1 [Compound C199] | –
2.8 | 1.4 | CC(C)(C)c1ccc(S(=O)(=O)c2cc3ccccc3oc2=O)cc1 [Compound C103] | –
– | – | COc1cccc2cc(S(=O)(=O)c3ccc(C)c(Cl)c3)c(=O)oc12 [Compound C228] | Firefly, cmpd/DMSO repeat 1 (Table 9): 1.0; Firefly, cmpd/DMSO repeat 2 (Table 9): 1.3
6.8 | 21.9 | O=C(NCc1ccccc1)c1ccc2oc(=O)c(S(=O)(=O)c3ccccc3)cc2c1 [Compound C115] | –
1.5 | 3.1 | COc1ccc2oc(=O)c(S(=O)(=O)c3ccc(F)c(C)c3)cc2c1 [Compound C225] | –
22.9 | 20.2 | Cc1ccccc1NC(=O)c1ccc2oc(=O)c(S(=O)(=O)c3ccc(F)cc3)cc2c1 [Compound C160] | Firefly/Renilla (NR2F6 stable, clone F4) (Table 12): 2.4; Firefly, NR2F6 stable (clone F4)/pGL4 (Table 12): 7.2; Firefly, cmpd/DMSO repeat 1 (Table 12): 22.9; Firefly, cmpd/DMSO repeat 2 (Table 12): 20.2
17.3 | 24.1 | COc1ccc(CNC(=O)c2ccc3oc(=O)c(S(=O)(=O)c4ccc(F)cc4)cc3c2)cc1 [Compound C117] | –
3.4 | 4.2 | Cc1ccc(NC(=O)c2ccc3oc(=O)c(S(=O)(=O)c4ccc(Cl)cc4)cc3c2)c(C)c1 [Compound C166] | –
11.0 | 8.1 | CC(C)(C)c1ccc(S(=O)(=O)c2cc3cc(Br)ccc3oc2=O)cc1 [Compound C200] | Firefly/Renilla (NR2F6 stable, clone F4) (Table 13): 1.2; Firefly, NR2F6 stable (clone F4)/pGL4 (Table 13): 5.4; Firefly, cmpd/DMSO repeat 1 (Table 13): 11.0; Firefly, cmpd/DMSO repeat 2 (Table 13): 8.1
2.2 | 1.2 | COc1ccc2cc(S(=O)(=O)c3ccc(Cl)cc3)c(=O)oc2c1 [Compound C271] | –
4.5 | 4.7 | COc1ccc(S(=O)(=O)c2cc3ccccc3oc2=O)cc1 [Compound C101] | Firefly/Renilla (NR2F6 stable, clone F4) (Table 12): 2.4; Firefly, NR2F6 stable (clone F4)/pGL4 (Table 12): 3.6; Firefly, cmpd/DMSO repeat 1 (Table 12): 4.5; Firefly, cmpd/DMSO repeat 2 (Table 12): 4.7
– | – | Cc1ccc(S(=O)(=O)NCc2cn3ccccc3n2)c(C)c1 [Compound E24] | Firefly F4, cmpd/DMSO (mean) [2]: 1.0; Firefly NR2F6 full length, cmpd/DMSO (mean) [2]: 1.0; Firefly F4, cmpd/DMSO (mean) [3]: 0.9; Firefly NR2F6 full length, cmpd/DMSO (mean) [3]: 1.1; Firefly F4, cmpd/DMSO (mean) [4]: 0.7; Firefly NR2F6 full length, cmpd/DMSO (mean) [4]: 1.1
28.0 | 24.5 | COc1ccccc1NC(=O)c1ccc2oc(=O)c(S(=O)(=O)c3ccc(Cl)cc3)cc2c1 [Compound C125] | –
– | – | COc1ccc(-c2noc(Cn3ncc(Cl)cc3=O)n2)cc1 [Compound Z142] | Firefly, cmpd/DMSO (mean): 1.1
– | – | CCOc1cccc2cc(S(=O)(=O)c3ccc(Cl)c(Cl)c3)c(=O)oc12 [Compound C246] | Firefly, cmpd/DMSO repeat 1 (Table 9): 7.4; Firefly, cmpd/DMSO repeat 2 (Table 9): 6.5
5.6 | 4.9 | Cc1cccc(NC(=O)c2ccc3oc(=O)c(S(=O)(=O)c4ccc(F)cc4)cc3c2)c1C [Compound C135] | –
10.0 | 16.6 | O=c1oc2ccc([N+](=O)[O-])cc2cc1S(=O)(=O)c1ccc(Br)cc1 [Compound C138] | –
13.2 | 11.9 | Cc1ccc(S(=O)(=O)c2cc3cc(C(=O)Nc4cc(C)cc(C)c4)ccc3oc2=O)cc1 [Compound C175] | Firefly/Renilla (NR2F6 stable, clone F4) (Table 13): 1.1; Firefly, NR2F6 stable (clone F4)/pGL4 (Table 13): 5.7; Firefly, cmpd/DMSO repeat 1 (Table 13): 13.2; Firefly, cmpd/DMSO repeat 2 (Table 13): 11.9
